From patent US20260053861A1, “CELL COMPOSITIONS AND METHODS OF USING THE SAME” (THE REGENTS OF THE UNIVERSITY OF CALIFORNIA, priority 2022, published 2026)
Structures can show the parent of a compound that is named as a salt.

system: hPSC-SCs; conditions: not given

SMILES	z.score.t
CC(=O)OCC1=C(C(=O)O)N2C(=O)[C@@H](N)[C@H]2SC1 [Cephalosporanic acid, 7-amino]	−0.7049
O=C(O)CCCc1ccc(N(CCCl)CCCl)cc1 [Chlorambucil]	−1.263
CN1C(=O)CCS(=O)(=O)C1c1ccc(Cl)cc1 (stereo not drawn) [Chlormezanone]	−0.5532
CCN(CC)CCCC(C)Nc1ccnc2cc(Cl)ccc12 (stereo not drawn) [Chloroquine diphosphate]	0.7847
C=C1CC[C@H](O)C/C1=C/C=C1\CCC[C@]2(C)[C@@H]([C@H](C)CCCC(C)C)CC[C@@H]12 [Cholecalciferol]	1.034
O=C1C=CC(=O)c2c1ccc1c2ccc2ccccc21 [Chrysene-1,4-quinone]	−1.823
CC(C)(C)NCC(O)c1cc(Cl)c(N)c(Cl)c1 (stereo not drawn) [Clenbuterol hydrochloride]	0.4048
Cc1c(Cl)cccc1Nc1ncccc1C(=O)O.NCCCC[C@H](N)C(=O)O [Clonixin Lysinate]	0.9603
COc1cc2c(c(OC)c1OC)-c1ccc(OC)c(=O)cc1[C@@H](NC(C)=O)CC2 [Colchicine]	−1.804
CCN1C[C@]2(COC)CC[C@H](O)[C@@]34C5C[C@@H]6[C@@H](OC)C[C@](O)(C(CC23)C14)C5[C@H]6OC(C)=O (stereo partly drawn) [Condelphine]	2.361
COc1cc2cc3c4cc(OC)c(OC)cc4cc[n+]3c(C)c2cc1OC.O.[Cl-] [Coralyne chloride hydrate]	−1.014

same assay, conditions: HTS viability of hPSC-SCs in the presence of 30 mM glucose; Prestwick library; Table S4

SMILES	z.score.t
NCc1ccccc1CC(=O)N[C@@H]1C(=O)N2C(C(=O)O)=C(CSc3nnnn3CC(=O)O)CS[C@H]12 [Ceforanide]	−0.5532
CO/N=C(\C(=O)N[C@@H]1C(=O)N2C(C(=O)O)=C(COC(C)=O)CS[C@H]12)c1csc(N)n1 [Cefotaxime sodium salt]	1.931
CO[C@@]1(NC(=O)C2SC(=C(C(N)=O)C(=O)O)S2)C(=O)N2C(C(=O)O)=C(CSc3nnnn3C)CS[C@@H]21 (stereo partly drawn) [Cefotetan]	−0.4942
CN(C)CCn1nnnc1SCC1=C(C(=O)O)N2C(=O)[C@@H](NC(=O)Cc3csc(N)n3)[C@H]2SC1 [Cefotiam hydrochloride]	−1.122
CO[C@@]1(NC(=O)Cc2cccs2)C(=O)N2C(C(=O)O)=C(COC(N)=O)CS[C@@H]21 [Cefoxitin sodium salt]	0.6964
NC(=O)c1cc[n+](CC2=C(C(=O)O)N3C(=O)[C@@H](NC(=O)[C@@H](c4ccccc4)S(=O)(=O)[O-])[C@H]3SC2)cc1 [Cefsulodin sodium salt]	−0.03362
CC(C)(O/N=C(\C(=O)N[C@@H]1C(=O)N2C(C(=O)[O-])=C(C[n+]3ccccc3)CS[C@H]12)c1csc(N)n1)C(=O)O [Ceftazidime pentahydrate]	0.563
CO/N=C(\C(=O)N[C@@H]1C(=O)N2C(C(=O)O)=C(COC(N)=O)CS[C@H]12)c1ccco1 [Cefuroxime sodium salt]	−0.8132
CC1=C(C(=O)O)N2C(=O)[C@@H](NC(=O)[C@H](N)c3ccccc3)[C@H]2SC1 [Cephalexin monohydrate]	1.08
CC(=O)OCC1=C(C(=O)O)N2C(=O)[C@@H](NC(=O)Cc3cccs3)[C@H]2SC1 [Cephalothin sodium salt]	−1.359
O=C(O)COCCN1CCN(C(c2ccccc2)c2ccc(Cl)cc2)CC1 (stereo not drawn) [Cetirizine dihydrochloride]	−0.3112
C[C@H](CCC(=O)O)[C@H]1CC[C@H]2[C@@H]3[C@H](O)C[C@@H]4C[C@H](O)CC[C@]4(C)[C@H]3CC[C@]12C [Chenodiol]	1.481
COc1cc(-c2ccc(N=Nc3ccc4c(S(=O)(=O)[O-])cc(S(=O)(=O)[O-])c(N)c4c3O)c(OC)c2)ccc1N=Nc1ccc2c(S(=O)(=O)[O-])cc(S(=O)(=O)[O-])c(N)c2c1O.[Na+].[Na+].[Na+].[Na+] [Chicago sky blue 6B]	0.6578
O=C(N[C@H](CO)[C@H](O)c1ccc([N+](=O)[O-])cc1)C(Cl)Cl [Chloramphenicol]	1.278
CN1CCN(C(c2ccccc2)c2ccc(Cl)cc2)CC1 (stereo not drawn) [Chlorcyclizine hydrochloride]	−1.754
[H]/N=C(\N/C(=N/[H])NCCCCCCNC(=N)NC(=N)Nc1ccc(Cl)cc1)Nc1ccc(Cl)cc1 [Chlorhexidine]	1.056
O=C(/C=C/c1ccc(O)c(O)c1)O[C@@H]1C[C@](O)(C(=O)O)C[C@@H](O)[C@H]1O [Chlorogenic acid]	0.888
CN(C)CCN(Cc1ccc(Cl)cc1)c1ccccn1 [Chloropyramine hydrochloride]	−0.5169
NS(=O)(=O)c1cc2c(cc1Cl)N=CNS2(=O)=O [Chlorothiazide]	1.171
COc1ccc(C(Cl)=C(c2ccc(OC)cc2)c2ccc(OC)cc2)cc1 [Chlorotrianisene]	−0.5169
CN(C)CCC(c1ccc(Cl)cc1)c1ccccn1 (stereo not drawn) [Chlorpheniramine maleate]	0.5452

SMILES	z.score.t
NC(=O)OCC(O)COc1ccc(Cl)cc1 (stereo not drawn) [Chlorphensin carbamate]	−0.09426
CN(C)CCCN1c2ccccc2Sc2ccc(Cl)cc21 [Chlorpromazine hydrochloride]	−1.622
CCCNC(=O)NS(=O)(=O)c1ccc(Cl)cc1 [Chlorpropamide]	0.1979
CN(C)CC/C=C1/c2ccccc2Sc2ccc(Cl)cc21 [Chlorprothixene hydrochloride]	−0.6678
CN(C)[C@@H]1C(O)=C(C(N)=O)C(=O)[C@@]2(O)C(O)=C3C(=O)c4c(O)ccc(Cl)c4[C@@](C)(O)[C@H]3C[C@@H]12 [Chlortetracycline hydrochloride]	0.02534
NS(=O)(=O)c1cc(C2(O)NC(=O)c3ccccc32)ccc1Cl (stereo not drawn) [Chlorthalidone]	−1.061
O=c1cc(-c2ccccc2)oc2cc(O)cc(O)c12 [Chrysin]	0.2139
Cc1cc(C2CCCCC2)n(O)c(=O)c1.NCCO [Ciclopirox ethanolamine]	−1.422
O=C1CCc2cc(OCCCCc3nnnn3C3CCCCC3)ccc2N1 [Cilostazol]	1.73
CN/C(=N/CCSCc1nc[nH]c1C)NC#N [Cimetidine]	0.4346
C=C[C@H]1C[N@@]2CC[C@H]1C[C@@H]2[C@@H](O)c1ccnc2ccccc12 [Cinchonine]	1.252
C(=C\c1ccccc1)/CN1CCN(C(c2ccccc2)c2ccccc2)CC1 [Cinnarizine]	−0.8513
CCn1nc(C(=O)O)c(=O)c2cc3c(cc21)OCO3 [Cinoxacin]	0.9525
CC(C)(Oc1ccc(C2CC2(Cl)Cl)cc1)C(=O)O (stereo not drawn) [Ciprofibrate]	−0.2611
O=C(O)c1cn(C2CC2)c2cc(N3CCNCC3)c(F)cc2c1=O [Ciprofloxacin hydrochloride]	0.6386
COc1cc(N)c(Cl)cc1C(=O)NC1CCN(CCCOc2ccc(F)cc2)CC1OC (stereo not drawn) [Cisapride]	0.3436
CN(C)CCCC1(c2ccc(F)cc2)OCc2cc(C#N)ccc21 (stereo not drawn) [Citalopram Hydrobromide]	−0.5169
COc1cc(N)c(Cl)cc1C(=O)NC1CCN(Cc2ccccc2)CC1 [Clebopride maleate]	1.08
CN1CCC[C@@H]1CCO[C@](C)(c1ccccc1)c1ccc(Cl)cc1 [Clemastine fumarate]	−1.892
Clc1ccc(Cn2c(CN3CCCC3)nc3ccccc32)cc1 [Clemizole hydrochloride]	0.7789
C[N+]12CCC(CC1)C(OC(=O)C(O)(c1ccccc1)c1ccccc1)C2 (stereo not drawn) [Clidinium bromide]	1.743

SMILES	z.score.t
Oc1c(I)cc(Cl)c2cccnc12 [Clioquinol]	−0.2802
CCC(=O)O[C@]1(C(=O)CCl)[C@@H](C)C[C@H]2[C@@H]3CCC4=CC(=O)C=C[C@]4(C)[C@@]3(F)[C@@H](O)C[C@@]21C [Clobetasol propionate]	1.323
C[C@@H]1C[C@H]2[C@@H]3C[C@H](F)C4=CC(=O)C=C[C@]4(C)[C@@]3(Cl)[C@@H](O)C[C@]2(C)[C@H]1C(=O)COC(=O)C(C)(C)C [Clocortolone pivalate]	−0.7388
CC(C)/N=c1\cc2n(-c3ccc(Cl)cc3)c3ccccc3nc-2cc1Nc1ccc(Cl)cc1 [Clofazimine]	−1.765
CC(C)(Oc1ccc(Cl)cc1)C(=O)O [Clofibric acid]	−0.8317
CCN(CC)CCOc1ccc(C(=C(Cl)c2ccccc2)c2ccccc2)cc1.O=C(O)CC(O)(CC(=O)O)C(=O)O [Clomiphene citrate (Z,E)]	−1.755
CN(C)CCCN1c2ccccc2CCc2ccc(Cl)cc21 [Clomipramine hydrochloride]	−1.637
Clc1cccc(Cl)c1N=C1NCCN1 [Clonidine hydrochloride]	1.056
C[C@@H]1CCC[C@H](C)N1NC(=O)c1ccc(Cl)c(S(N)(=O)=O)c1 [Clopamide]	0.7847
Clc1ccc(C(OCCN2CCCCC2)c2ccccc2)cc1 (stereo not drawn) [Cloperastine hydrochloride]	−1.185
C#CCN(C)CCCOc1ccc(Cl)cc1Cl [Clorgyline hydrochloride]	0.1556
Nc1cc(C(Cl)=C(Cl)Cl)c(S(N)(=O)=O)cc1S(N)(=O)=O [Clorsulon]	0.563
Clc1ccccc1C(c1ccccc1)(c1ccccc1)n1ccnc1 [Clotrimazole]	−1.91
Cc1onc(-c2ccccc2Cl)c1C(=O)N[C@@H]1C(=O)N2[C@@H]1SC(C)(C)[C@@H]2C(=O)O [Cloxacillin sodium salt]	0.6255
CN1CCN(C2=Nc3cc(Cl)ccc3Nc3ccccc32)CC1 [Clozapine]	1.049
C[C@H]1[C@H]2CC[C@H]3[C@@H]4CC=C5C[C@@H](N(C)C)CC[C@]5(C)[C@H]4CC[C@]23CN1C [Conessine]	0.5822
COc1ccc(C(=O)OC2C[C@H]3CC[C@@H](C2)N3C)cc1OC.Cl (stereo partly drawn) [Convolamine hydrochloride]	1.345
C[C@]12C[C@H](O)[C@H]3[C@@H](CCC4=CC(=O)CC[C@@]43C)[C@@H]1CC[C@@H]2C(=O)CO [Corticosterone]	−0.2486
C[C@]12CCC(=O)C=C1CC[C@@H]1[C@@H]2C(=O)C[C@@]2(C)[C@H]1CC[C@]2(O)C(=O)CO [Cortisone]	0.9568
